The results in this text go back to patent US6800653B2, “Epothilone derivatives” (priority 2001, dated 2004).

pEC50, pIC50: −log10 of the molar value.

For one assay, the system named is calf brain tubulin. Kind of assay: In vitro tubulin polymerization. It counts as biochemical. As to conditions: interpolated concentration inducing an initial slope of 0.01 OD/minute; 1.0 mg/ml microtubule protein, 37°; read-out: Tubulin assay EC0.01. Here is the method: In vitro Tubulin Polymerization
Twice cycled (2×) calf brain tubulin was prepared following the procedure of Williams and Lee (see Williams, R. C., Jr., and Lee, J. C. Preparation of tubulin from brain. Methods in Enzymology 85, Pt. D: 376-385, 1982) and stored in liquid nitrogen before use. Quantification of tubulin polymerization potency is accomplished following a modified procedure of Swindell, et al., (see Swindell, C. S., Krauss, N. E., Horwitz, S. B., and Ringel, L. Biologically active taxol analogues with deleted A-ring side chain substituents and variable C-2′ configurations. J. Med. Chem. 34: 1176-1184, 1991). These modifications, in part, result in the expression of tubulin polymerization potency as an effective concentration for any given compound. For this method, different concentrations of compound in polymerization buffer (0.1M MES, 1 mM EGTA, 0.5 mM MgCl2, pH 6.6) are added to tubulin in polymerization buffer at 37° in microcuvette wells of a Beckman (Beckman Instruments) Model DU 7400 UV spectrophotometer. A final microtubule protein concentration of 1.0 mg/ml and compound concentration of generally 2.5, 5.0, and 10 μM are used. Initial slopes of OD change measured every 10 seconds were calculated by the program accompanying the instrument after initial and final times of the linear region encompassing at least 3 time points were manually defined. Under these conditions linear variances were generally <10^−6, slopes ranged from 0.03 to 0.002 absorbance unit/minute, and maximum absorbance was 0.15 absorbance units. Effective concentration (EC0.01) is defined as the interpolated concentration capable of inducing an initial slope of 0.01 OD/minute rate and is calculated using the formula: EC0.01=concentration/slope. EC0.01 values are expressed as the mean with standard deviation obtained from 3 different concentrations. EC0.01 values for the compounds in this invention fall in the range 0.01-1000 μM.

Assay [1] concerns HCT-116 human colon carcinoma cells. Kind of assay: Cytotoxicity (in vitro) by MTS assay. The assay is classed as cell-based. As to conditions: HCT-116, 72 hours incubation, MTS, read-out: HTC-116 assay IC50. The method, then: Cytoxicity was assessed in HCT-116 human colon carcinoma cells by MTS (3-(4,5-dimethylthiazol-2-yl)-5-(3-carboxymethoxyphenyl)-2-(4-sulphenyl)-2H-tetrazolium, inner salt) assay as reported in T. L. Riss, et. al., “Comparison of MTT, XTT, and a novel tetrazolium compound MTS for in vitro proliferation and chemosensitivity assays.,” Mol. Biol. Cell 3 (Suppl.): 184a, 1992. Cells were plated at 4,000 cell/well in 96 well microtiter plates and 24 hours later drugs were added and serial diluted. The cells were incubated at 37° form 72 hours at which time the tetrazolium dye, MTS at 333 μg/ml (final concentration), in combination with the electron coupling agent phenazine methosulfate at 25 μM (final concentration) was added. A dehydrogenase enzyme in live cells reduces the MTS to a form that absorbs light at […] which can be quantitated spectrophotometrically. The greater the absorbance the greater the number of live cells. The results are expressed as an IC50, which is the drug concentration required to inhibit cell proliferation (i.e. absorbance at 450 nm) to 50% of that of untreated control cells.
Background: Tetrazolium dyes change colour on reduction, which living cells bring about.

Turning to `C/C(=C\c1csc(C)n1)C1CC2[C@@H](CCC[C@H](C)[C@H](O)[C@@H](C)C(=O)C(C)(C)[C@@H](O)CC(=O)O1)N2C(=O)Oc1ccccc1` (relative stereo) [Example 20, [1S-[1R*,3R*(E),7R*,10S,11R*,12R*,16S*]]-7,11-dihydroxy-8,8,10,12-tetramethyl-3-[1-methyl-2-(2-methyl-4-thiazolyl)ethenyl]-4-oxa-17-azabicyclo[14.1.0]heptadecane-5,9-dione-17-carboxylic acid phenyl ester.], the pEC50 in the assay with calf brain tubulin was 5.96. Further, in assay [1], the negative-log IC50 (pIC50) (in general, the negative decadic logarithm of the IC50, by convention in mol/L) is 8.74.
On the same counts, the results for `CC(=O)N1C2CC(/C(C)=C/c3csc(C)n3)OC(=O)C[C@H](O)C(C)(C)C(=O)[C@H](C)[C@@H](O)[C@@H](C)CCC[C@H]21` (relative stereo) [Example 21, [1S-[1R*,3R*(E),7R*,10S,11R*,12R*,16S*]]-17-Acetyl-7,11-dihydroxy-8,8,10,12-tetramethyl-3-[1-methyl-2-(2-methyl-4-thiazolyl)ethenyl]-4-oxa-17-azabicyclo[14.1.0]heptadecane-5,9-dione.] are 5.92 and 9.05.
The like results for `C/C(=C\c1csc(C)n1)C1CC2[C@@H](CCC[C@H](C)[C@H](O)[C@@H](C)C(=O)C(C)(C)[C@@H](O)CC(=O)O1)N2C(=O)c1ccccc1` (relative stereo) [Example 22, 1S-[1R*,3R*(E),7R*,10S,11R*,12R*,16S*]]-17-Phenylcarbonyl-7,11-dihydroxy-8,8,10,12-tetramethyl-3-[1-methyl-2-(2-methyl-4-thiazolyl)ethenyl]-4-oxa-17-azabicyclo[14.1.0]heptadecane-5,9-dione.] were, in that order, 5.85 and 8.52.
On the same counts, the results for `C/C(=C\c1csc(C)n1)C1CC2[C@@H](CCC[C@H](C)[C@H](O)[C@@H](C)C(=O)C(C)(C)[C@@H](O)CC(=O)O1)N2C(=O)c1cccs1` (relative stereo) [Example 23, [1S-[1R*,3R*(E),7R*,10S*,11R*,12R*,16S*]]-17-(2-Thienyl)carbonyl-7,11-dihydroxy-8,8,10,12-tetramethyl-3-[1-methyl-2-(2-methyl-4-thiazolyl)ethenyl]-4-oxa-17-azabicyclo[14.1.0]heptadecane-5,9-dione.] are 5.92 and 8.80.
Take `CCOC(=O)N1C2CC(/C(C)=C/c3csc(C)n3)OC(=O)C[C@H](O)C(C)(C)C(=O)[C@H](C)[C@@H](O)[C@@H](C)CCC[C@H]21` (relative stereo) [Example 24]: in the assay on calf brain tubulin, the pEC50 is 5.92. For the same compound, in assay [1], the pIC50 is 8.11.
